# US8389526B2, “3-heteroarylmethyl-imidazo[1,2-b]pyridazin-6-yl derivatives” (Novartis AG, priority 2009, dated 2013)
# Target: T1, c-Met (Homo sapiens, UniProt P08581)
# T1 construct: adapted to measure the phosphorylation of endogenous cellular proteins in cell lysates; endogenous in cells; host or cells: GTL-16
# Experiment: GTL-16 c-Met autophosphorylation measured by AlphaScreen detection
# Format: cell-based
# Conditions: GTL-16 cells, 1 h incubation, AlphaScreen p-c-Met; read-out: GTL-16 IC50 c-Met phosphorylation
# Method in brief: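 GTL-16 MET-amplified gastric cancer cells, serum-free DMEM with 0.1% BSA, exposed to 8-point compound dilutions for 1 h at 37° C (0.11% DMSO final). Lysates probed for phospho-c-Met by AlphaScreen using anti-c-Met antibody, biotinylated PY20 phosphotyrosine antibody, Protein A acceptor and streptavidin donor beads.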
# T1 sequence (P08581 25-1390): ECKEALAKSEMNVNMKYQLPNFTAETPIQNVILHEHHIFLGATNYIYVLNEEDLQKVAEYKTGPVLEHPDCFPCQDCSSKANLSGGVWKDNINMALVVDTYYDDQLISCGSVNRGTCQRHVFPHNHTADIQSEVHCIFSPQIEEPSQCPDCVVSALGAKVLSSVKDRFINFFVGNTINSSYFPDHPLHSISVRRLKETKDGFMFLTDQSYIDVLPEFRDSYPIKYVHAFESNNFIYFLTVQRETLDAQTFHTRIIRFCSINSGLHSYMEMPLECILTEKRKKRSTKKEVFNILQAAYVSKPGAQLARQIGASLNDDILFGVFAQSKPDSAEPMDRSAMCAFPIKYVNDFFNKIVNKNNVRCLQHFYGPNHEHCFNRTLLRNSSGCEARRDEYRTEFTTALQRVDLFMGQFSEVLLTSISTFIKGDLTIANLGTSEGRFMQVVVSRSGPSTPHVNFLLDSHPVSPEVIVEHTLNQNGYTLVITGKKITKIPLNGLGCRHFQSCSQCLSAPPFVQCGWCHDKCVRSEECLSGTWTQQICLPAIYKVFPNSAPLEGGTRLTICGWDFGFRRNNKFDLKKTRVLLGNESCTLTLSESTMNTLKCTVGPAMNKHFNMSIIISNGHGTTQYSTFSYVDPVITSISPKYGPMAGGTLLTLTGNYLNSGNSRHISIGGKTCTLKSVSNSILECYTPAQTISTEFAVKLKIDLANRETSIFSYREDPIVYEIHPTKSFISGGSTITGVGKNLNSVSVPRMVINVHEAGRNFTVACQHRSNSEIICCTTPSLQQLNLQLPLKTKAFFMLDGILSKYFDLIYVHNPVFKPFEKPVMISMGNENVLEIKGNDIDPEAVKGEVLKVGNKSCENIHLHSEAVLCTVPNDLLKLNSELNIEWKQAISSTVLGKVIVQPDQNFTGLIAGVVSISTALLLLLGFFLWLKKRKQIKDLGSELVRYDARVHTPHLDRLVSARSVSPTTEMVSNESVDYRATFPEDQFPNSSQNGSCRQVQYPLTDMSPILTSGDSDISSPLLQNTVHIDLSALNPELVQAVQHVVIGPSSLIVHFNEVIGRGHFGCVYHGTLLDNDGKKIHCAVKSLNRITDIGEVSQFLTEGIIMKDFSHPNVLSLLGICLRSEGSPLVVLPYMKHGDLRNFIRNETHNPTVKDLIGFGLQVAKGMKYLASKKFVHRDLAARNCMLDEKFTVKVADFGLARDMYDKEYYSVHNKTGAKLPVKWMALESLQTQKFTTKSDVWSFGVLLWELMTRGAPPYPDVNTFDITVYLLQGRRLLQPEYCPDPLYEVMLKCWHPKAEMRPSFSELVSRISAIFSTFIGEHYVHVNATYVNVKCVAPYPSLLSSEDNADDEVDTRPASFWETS
row,SMILES,IC50
1,"C[C@@H](c1c(F)cc2ncccc2c1F)c1cnc2ccc(N3CCNCC3)nn12 [Example 7, 5,7-Difluoro-6-[(S)-1-(6-piperazin-1-yl-imidazo[1,2-b]pyridazin-3-yl)-ethyl]-quinoline]",2.1 nM
2,"C[C@@H](c1c(F)cc2ncccc2c1F)c1cnc2ccc(N3CCNC(=O)C3)nn12 (single isomer, unassigned) [Example 5]",< 3 nM
3,"CC(=O)N1CCN(c2ccc3ncc([C@@H](C)c4c(F)cc5ncccc5c4F)n3n2)CC1 [Example 11, 1-(4-{3-[(S)-1-(5,7-Difluoro-quinolin-6-yl)-ethyl]-imidazo[1,2-b]pyridazin-6-yl}-piperazin-1-yl)ethanone]",4.4 nM
4,"C[C@@H](c1cc2cnn(C)c2cc1F)c1cnc2ccc(N3CCNC(=O)C3)nn12 [Example 28, 4-{3-[(S)-1-(6-Fluoro-1-methyl-1H-indazol-5-yl)-ethyl]-imidazo[1,2-b]pyridazin-6-yl}-piperazin-2-one]",11 nM
5,"C[C@@H](c1c(F)cc2ncccc2c1F)c1cnc2ccc(N3CCN(C)C(=O)C3)nn12 [Example 2, 4-{3-[(S)-1-(5,7-Difluoro-quinolin-6-yl)-ethyl]-imidazo[1,2-b]pyridazin-6-yl}-1-methyl-piperazin-2-one]",2.7 nM
